# Results reported in patent US20230286973A1, “PROTEIN SECRETION INHIBITORS” (KEZAR LIFE SCIENCES, priority 2020, published 2023).
# Experiments:
# [1] = test system: HER3-ss+4aa/Gaussia Luciferase; assay: Dox-Induced Her3-ss-Gluc Assay; type: cell-based; conditions: 24 hr Dox induction; 293FRT/TO cells; read-out: 24 hr Dox Inducible Her3(ss + 4)Gluc 293FRT/TO: Mean IC50
# Source text: Flp-In 293 T-REx™ cells were transfected with pcDNA™5/FRT/TO plasmid inserted with cDNA encoding Gaussia Luciferase fused to the 3′ end of cDNA encoding HER3 signal sequence plus 4 amino acids (N-[…]-C) (SEQ ID NO: 2). Transfected cells were selected for resistance to the selectable markers Hygromycin and Blasticidin to create a stable cell line that contained the HER3-ss+4aa/Gaussia Luciferase cDNA insert whose expression was regulated under the T-REx™ system. The day before assay, cells were trypsinized and plated in 384-well tissue culture plates. The next day, compound dilutions in DMSO/media containing doxycycline were added to the wells and incubated at 37° C., 5% CO2.
# For chemical structures that include one or more stereoisomers, but are illustrated without indicating stereochemistry, the assay data refers to a mixture of stereoisomers.
# [2] = test system: multiple myeloma cell line NCI-H929; assay: H929 Cell Viability Assay; type: cell-based, human; conditions: Homo sapiens, NCI-H929, 48 h, NCI-H929 cells, Celltiter-Glo
# Outline: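 A 48-hour compound treatment of cells in 10% FBS RPMI medium was followed by luciferase-based viability quantification.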
# [3] = test system: TNFα-FL/Gaussia Luciferase; assay: Dox Induced TNFα-FL-Gluc Assay; type: cell-based; conditions: for IC50: 24 hr Dox induction, 293FRT/TO cells, read-out: 24 hr Dox Inducible TNFaFLGluc 293FRT/TO: Mean IC50; for 24 hr Dox Inducible TNFaFLGluc 293FRT/TO: TNF/PD1: ratio of TNFaFLGluc IC50 to PD1ssGluc IC50
# Outline: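 Hygromycin/blasticidin-selected Flp-In 293 T-REx cells, TNFα-FL/Gaussia luciferase fusion under T-REx control; overnight plating, then compound in DMSO/media with doxycycline at 37 °C, 5% CO2; stereo-undefined structures tested as mixtures.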
# [4] = test system: PD1-ss+10aa/Gaussia Luciferase; assay: Dox-Induced PD1-ss-Gluc Assay; type: cell-based; conditions: 24 hr Dox induction; 293FRT/TO cells; read-out: 24 hr Dox Inducible PD1ssGluc 293FRT/TO: Mean IC50
# Outline: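 Flp-In 293 T-REx cells stably carrying a doxycycline-inducible Gaussia luciferase fused to the PD1 signal sequence plus 10 aa were plated the day before. Compound dilutions in DMSO/media containing doxycycline were then added and incubated at 37 °C, 5% CO2. Data for undefined stereochemistry refer to stereoisomer mixtures.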
# [5] = test system: IL-2-FL/Gaussia Luciferase; assay: Dox Induced IL2-FL-Gluc Assay; type: cell-based; conditions: for IC50: 24 hr Dox induction, 293FRT/TO cells, read-out: 24 hr Dox Inducible IL2FLGluc 293FRT/TO: Mean IC50; for 24 hr Dox Inducible IL2FLGluc 293FRT/TO: IL2/PD1: ratio of IL2FLGluc IC50 to PD1ssGluc IC50
# Outline: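 A hygromycin- and blasticidin-resistant 293 T-REx clone carrying inducible IL-2–Gaussia luciferase (full-length IL-2, residues 1-153) serves as the cell system. After overnight plating, the cells get test compounds together with doxycycline in DMSO/media and are incubated at 37° C, 5% CO2.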
# [6] = Liver Microsome Stability Assay (monkey); conditions: monkey liver microsomes, with NADPH, 1.0 uM compound
# Protocol: (§1) Stability of a compound was assessed in the presence of liver microsomes from various sources—mouse, rat, monkey and human liver microsomes. 1.0 uM compound, 0.4% DMSO in 0.1 M Potassium Phosphate with 1.0 mg/mL liver microsomes, were incubated at 37° C. with or without 1 mM NADPH. The samples were quenched at 0, and 30 minutes.
# [7] = Liver Microsome Stability Assay (mouse); conditions: mouse liver microsomes, with NADPH, 1.0 uM compound
# Protocol: as §1
# [8] = Liver Microsome Stability Assay (rat); conditions: rat liver microsomes, with NADPH, 1.0 uM compound
# Protocol: as §1
# [9] = Liver Microsome Stability Assay (human); conditions: human liver microsomes, with NADPH, 1.0 uM compound
# Protocol: as §1
# [10] = test system: multiple myeloma cell line U266B1; assay: U266 Cell Viability Assay; type: cell-based, human; conditions: Homo sapiens, U-266, 48 h, U266B1 cells, Celltiter-Glo
# Outline: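 After growth in serum-supplemented RPMI 1640, cells received serially diluted compound in DMSO/media and were kept 48 hours before a CellTiter-Glo luminescence readout.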
IC50 [1] [nM],EC50 [2] [nM],IC50 [3] [nM],IC50 [4] [nM],IC50 [5] [nM],Liver Microsome Stability (Multiple Species): Monkey - % Remaining after 30 min w/NADPH [6] [%],Liver Microsome Stability (Multiple Species): Mouse - % Remaining after 30 min w/NADPH [7] [%],Liver Microsome Stability (Multiple Species): Rat - % Remaining after 30 min w/NADPH [8] [%],Liver Microsome Stability (Multiple Species): Human - % Remaining after 30 min w/NADPH [9] [%],EC50 [10] [µM],Compound,24 hr Dox Inducible TNFaFLGluc 293FRT/TO: TNF/PD1 [3],24 hr Dox Inducible IL2FLGluc 293FRT/TO: IL2/PD1 [5]
25.2,497,330,13.8,35.6,3.56,39.9,5.67,4.64,> 25,"CC(=O)N1CCC(Oc2ccc(N3CCC[C@@H]3c3csc(NC(=O)c4cccn4Cc4ccncc4)n3)cc2)CC1 [Compound A7, (R)-N-(4-(1-(4-((1-acetylpiperidin-4-yl)oxy)phenyl)pyrrolidin-2-yl)thiazol-2-yl)-1-(pyridin-4-ylmethyl)-1H-pyrrole-2-carboxamide]",23.8,2.6
588,2000,13400,293,806,11.3,3.14,11,3.14,2.94,"CN1CCC(Oc2ccc(N3CCC[C@@H]3c3csc(NC(=O)c4cccn4Cc4ccncc4)n3)cc2)CC1 [Compound A8, (R)-N-(4-(1-(4-((1-methylpiperidin-4-yl)oxy)phenyl)pyrrolidin-2-yl)thiazol-2-yl)-1-(pyridin-4-ylmethyl)-1H-pyrrole-2-carboxamide]",45.5,2.7
72.5,767,875,34.2,97.1,1.86,10.5,17.7,5.24,7.35,CNc1ccc(N2CCC[C@@H]2c2csc(NC(=O)c3cccn3Cc3ccncc3)n2)cc1 [Compound A15],25.6,2.8
8.37,119,127,5.06,10.6,0.17,0.26,0.15,0.34,2.14,"CN(C)c1ccc(N2CCC[C@@H]2c2csc(NC(=O)c3cccn3Cc3ccncc3)n2)cc1 [Compound A16, (R)-N-(4-(1-(4-(dimethylamino)phenyl)pyrrolidin-2-yl)thiazol-2-yl)-1-(pyridin-4-ylmethyl)-1H-pyrrole-2-carboxamide]",25,2.1
11.5,161,178,6.69,16.7,0.22,2.94,0.38,0.32,> 25,"CNC(=O)c1ccc(N2CCC[C@@H]2c2csc(NC(=O)c3cccn3Cc3ccncc3)n2)cc1 [Compound A17, (R)-N-(4-(1-(4-(methylcarbamoyl)phenyl)pyrrolidin-2-yl)thiazol-2-yl)-1-(pyridin-4-ylmethyl)-1H-pyrrole-2-carboxamide]",26.6,2.5
109,1580,1020,64.2,145,0.08,3.75,0.17,0.05,> 25,"CN(C)C(=O)c1ccc(N2CCC[C@@H]2c2csc(NC(=O)c3cccn3Cc3ccncc3)n2)cc1 [Compound A18, (R)-N-(4-(1-(4-(dimethylcarbamoyl)phenyl)pyrrolidin-2-yl)thiazol-2-yl)-1-(pyridin-4-ylmethyl)-1H-pyrrole-2-carboxamide]",15.9,2.3
5.66,219,45.3,2.46,9.11,0.17,3.24,0.39,0.48,> 25,NC(=O)c1ccc(N2CCC[C@@H]2c2csc(NC(=O)c3cccn3Cc3ccncc3)n2)cc1 [Compound A19],18.4,3.7
40.3,340,131,16.4,39.6,2.72,7.28,26.3,4.63,4.7,Nc1ccc(N2CCC[C@@H]2c2csc(NC(=O)c3cccn3Cc3ccncc3)n2)cc1 [Compound A20],8,2.4
2.61,54.1,27.1,0.89,3.87,1.43,6.31,11,4.28,> 25,"Cc1ccc(N2CCC[C@@H]2c2csc(NC(=O)c3cccn3Cc3ccncc3)n2)cc1 [Compound A21, (R)-1-(pyridin-4-ylmethyl)-N-(4-(1-(p-tolyl)pyrrolidin-2-yl)thiazol-2-yl)-1H-pyrrole-2-carboxamide]",30.4,4.3
20.7,412,240,9.92,17.5,1.66,1.56,1.84,3.01,16.1,"O=C(Nc1nc([C@H]2CCCN2c2ccc(F)cc2)cs1)c1cccn1Cc1ccncc1 [Compound A25, (R)-N-(4-(1-(4-fluorophenyl)pyrrolidin-2-yl)thiazol-2-yl)-1-(pyridin-4-ylmethyl)-1H-pyrrole-2-carboxamide]",24.2,1.8
